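Method: 48-hour compound exposure of cells in 96-well plates, five concentrations, linear interpolation of endpoints. Abbreviation: GI50, concentration required for 50% inhibition of growth.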 Activity calls are given as the source filed them. Cut-off read from the data, not from the text of the source: active = GI50 up to about 1.1 µM and inactive = higher.
How the values were obtained:
Test in all cases: inhibition of tumour cell growth, NCI panel, 48 h
COLO 205 = tested on: COLO 205
DU-145 = tested on: DU-145
SF-268 = tested on: SF-268
MDA-MB-435 = tested on: MDA-MB-435
ACHN = tested on: ACHN
SK-MEL-2 = tested on: SK-MEL-2
UACC-62 = tested on: UACC-62
HT-29 = tested on: HT-29
NCI-H522 = tested on: NCI-H522
MOLT-4 = tested on: MOLT-4
SF-295 = tested on: SF-295
SR = tested on: SR
UACC-257 = tested on: UACC-257
M14 = tested on: M14
NCI-H460 = tested on: NCI-H460
HCT-15 = tested on: HCT-15
A549 = tested on: A549
SN12C = tested on: SN12C
OVCAR-5 = tested on: OVCAR-5
HCC 2998 = tested on: HCC 2998

Structure (SMILES)	GI50 (COLO 205)	GI50 (DU-145)	GI50 (SF-268)	GI50 (MDA-MB-435)	GI50 (ACHN)	GI50 (SK-MEL-2)	GI50 (UACC-62)	GI50 (HT-29)	GI50 (NCI-H522)	GI50 (MOLT-4)	GI50 (SF-295)	GI50 (SR)	GI50 (UACC-257)	GI50 (M14)	GI50 (NCI-H460)	GI50 (HCT-15)	GI50 (A549)	GI50 (SN12C)	GI50 (OVCAR-5)	GI50 (HCC 2998)
O=C(CSC1=NCCN1)c1ccccc1	> 100 µM (inactive)	> 100 µM (inactive)	> 100 µM (inactive)	> 100 µM (inactive)	> 100 µM (inactive)	> 100 µM (inactive)	> 100 µM (inactive)	> 100 µM (inactive)	> 100 µM (inactive)	> 100 µM (inactive)	> 100 µM (inactive)	> 100 µM (inactive)	> 100 µM (inactive)	> 100 µM (inactive)	> 100 µM (inactive)	> 100 µM	> 100 µM (inactive)	> 100 µM (inactive)	> 100 µM (inactive)	–
CC(NC(=O)NC(C)(C)C)NC(=O)C(N)CC(=O)O (stereo not given)	> 100 µM (inactive)	> 100 µM (inactive)	> 100 µM (inactive)	> 100 µM (inactive)	> 100 µM (inactive)	> 100 µM (inactive)	14.4 µM (inactive)	> 100 µM (inactive)	> 100 µM (inactive)	> 100 µM (inactive)	> 100 µM (inactive)	–	> 100 µM (inactive)	> 100 µM (inactive)	> 100 µM (inactive)	> 100 µM	> 100 µM (inactive)	> 100 µM (inactive)	> 100 µM (inactive)	> 10 µM (inactive)
O=C(Nc1nc(C23CC4CC(CC(C4)C2)C3)cs1)c1cc2ccc(O)cc2oc1=O	5.36 µM (inactive)	18.3 µM (inactive)	16.9 µM (inactive)	8.38 µM (inactive)	10.6 µM (inactive)	–	–	14.4 µM (inactive)	10.2 µM (inactive)	5.9 µM (inactive)	16.5 µM (inactive)	–	15.6 µM (inactive)	–	6.5 µM (inactive)	4.46 µM	15.9 µM (inactive)	11.2 µM (inactive)	21 µM (inactive)	10.6 µM (inactive)
CCC1C2Cc3ccc(O)cc3C1(CC)CCN2C (stereo not given)	> 100 µM (inactive)	> 100 µM (inactive)	> 100 µM (inactive)	> 100 µM (inactive)	> 100 µM (inactive)	> 100 µM (inactive)	> 100 µM (inactive)	> 100 µM (inactive)	> 100 µM (inactive)	> 100 µM (inactive)	> 100 µM (inactive)	> 100 µM (inactive)	77.3 µM (inactive)	> 100 µM (inactive)	> 100 µM (inactive)	> 100 µM	> 100 µM (inactive)	> 100 µM (inactive)	> 100 µM (inactive)	–
O=C1CSSCC(=O)Nc2ccccc2N1	> 100 µM (inactive)	> 100 µM (inactive)	> 100 µM (inactive)	> 100 µM (inactive)	> 100 µM (inactive)	> 100 µM (inactive)	> 100 µM (inactive)	> 100 µM (inactive)	> 100 µM (inactive)	55.6 µM (inactive)	> 100 µM (inactive)	> 100 µM (inactive)	> 100 µM (inactive)	> 100 µM (inactive)	> 100 µM (inactive)	> 100 µM	> 100 µM (inactive)	> 100 µM (inactive)	> 100 µM (inactive)	–
O=c1[nH]c2ccccc2c(=O)n1/N=C\c1ccccc1O	> 100 µM (inactive)	> 100 µM (inactive)	58.6 µM (inactive)	> 100 µM (inactive)	> 100 µM (inactive)	> 100 µM (inactive)	> 100 µM (inactive)	> 100 µM (inactive)	–	> 100 µM (inactive)	> 100 µM (inactive)	> 100 µM (inactive)	> 100 µM (inactive)	> 100 µM (inactive)	> 100 µM (inactive)	> 100 µM	> 100 µM (inactive)	> 100 µM (inactive)	> 100 µM (inactive)	–

Reference: ChEMBL document CHEMBL1201862, “PubChem BioAssay data set” (2004)
